Assay results taken from PubChem BioAssay AID2005 (Sanford-Burnham Center for Chemical Genomics, 2009).
Calls of active or inactive are those of the source.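 The calls were made as follows: active = plate Z score at or below -3, or inhibition of at least 30% at 20 µM; inactive = the rest.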

Columns and labels:
[1] = EGFP reporter destabilization counter-screen – F442A EGFP cells, fluorescence, counter-screen for p/CIP destabilizer project, dose response (AID 2005); details: F442A EGFP cells, EGFP fluorescence, 16 h, stronger effect = higher value;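 also: cells express EGFP alone from a CMV promoter as a counter screen for p/CIP-EGFP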
[2] = test system: F442A EGFP cells, EGFP fluorescence, 16 h; assay: as above

SMILES	inhibition ([1]; EGFP decrease, at 10 µM) [%]	IC50 [2] [µM]	inhibition ([1]; at 20 µM)
CCOC(=O)c1c(C)[nH]c2c1-c1ccccc1C(=O)C2=O	23.3	8.64	
CC(C)(C)c1cc[n+](C2=C([O-])c3ccccc3C(=O)/C2=N\S(=O)(=O)c2cccs2)cc1	-4.5	37.9	
CCOC(=O)N=Nc1c2ccccc2c2nc3no[nH]c3nc12	-20.6	35.5	
Cc1ccccc1NC1=C/C(=N\S(=O)(=O)c2cccs2)c2ccccc2C1=O	66.7	13	
Nc1ccc2c(c1)C(=O)C(=O)c1ccccc1-2	3.5	30.8	
Cc1nnc(NC(=O)CSc2nccn2Cc2ccc(F)cc2)s1	22.4		16.3% (inactive)
O=C(CN1CCCCC1)N/N=C/c1cccc(Cl)c1	13.5		17.4% (inactive)
COCC(=O)N1CCCN(c2nc3c(C)cccc3cc2C#N)CC1	7.6		-0.8% (inactive)
Cc1nc2cc3ccccc3cc2c(=O)[nH]1	12.2		3.3% (inactive)
COc1cccc(CN2CC(C(=O)N(C)Cc3nc(C)cs3)CCC2=O)c1 (stereo not drawn)	-5.9		16.2% (inactive)
O=S(=O)(NCc1cn2ccccc2n1)c1cccs1	8.4		-3.1% (inactive)
CCCC(=O)Nn1cnc2c(c1=O)C1(CCCCC1)Cc1ccccc1-2	-8.7		4% (inactive)
CC(C)OP(=O)(O)NC(=O)c1ccccc1	3.6		18.5% (inactive)
CC(=O)NCCNC(=O)c1ccc(CSc2nc3ccccc3s2)cc1	15.9		16.6% (inactive)
CC1CC(C)CN(C(=O)C2CCN(S(=O)(=O)c3cccs3)CC2)C1 (stereo not drawn)	1.5		8.5% (inactive)
O=C(CC12CC3CC(CC(C3)C1)C2)NCCN1CCOCC1	9.3		25.4% (inactive)
N/C(Cc1ccc([N+](=O)[O-])cc1)=N\OC(=O)COc1ccc2ccccc2c1	7		-7.4% (inactive)
COc1ccc(CNC(=O)C(C)Cc2ccccc2)cc1O (stereo not drawn)	24.1		14.7% (inactive)
Fc1ccc(NC(=S)NCc2cccnc2)cc1	28.3		8.7% (inactive)
CCCNC(=O)Cn1c(=O)oc2ccccc21	-20.6		8.8% (inactive)

SMILES	inhibition ([1]; EGFP decrease, at 10 µM) [%]	IC50 [2] [µM]	inhibition ([1]; at 20 µM)
O=C1C2C3C=CC(C2C(=O)N1c1cccc(O)c1)C1C2C(=O)N(c4cccc(O)c4)C(=O)C2C31 (stereo not drawn)	-3		12.3% (inactive)
c1ccc(-c2cc(-c3nnco3)c3ccccc3n2)nc1	13.9		-6.2% (inactive)
CCN(CC)C(=O)c1oc2ccc(S(=O)(=O)N3CC(C)CC(C)C3)cc2c1C (stereo not drawn)	29.3		49.5%
CC(Nc1cc(N2CCN(S(=O)(=O)N(C)C)CC2)ccc1[N+](=O)[O-])c1ccccc1 (stereo not drawn)	7.3		23.9% (inactive)
COCCn1c(SCC(=O)Nc2cc(C)on2)nnc1C(C)C	-1.7		0.9% (inactive)
Cc1c(N=NC2=C(O)CCCC2=O)c(=O)n(-c2ccccc2)n1C	6.5		21.3% (inactive)
CCCC(=O)c1c[nH]c(C(=O)NCCc2ccccn2)c1	20.5		29.1% (inactive)
Cc1ccccc1CN1CCC(CNC(=O)Nc2ccc(F)cc2F)CC1	25.1		20.2% (inactive)
O=C(O)C(O)Cc1c[nH]c2ccccc12 (stereo not drawn)	23.8		19.1% (inactive)
COc1cc(Cl)c(C)cc1NC(=O)CSc1ccc(NC(C)=O)cc1	20.2		10.2% (inactive)
CC(=O)N/C(=C/c1ccc2c(c1)OCO2)C(=O)NCCCO	1.2		2% (inactive)
CC(C)[C@H](NC(=O)c1ccc(F)cc1)C(=O)NC1=NCCS1	21.6		2.2% (inactive)
CN(Cc1ccco1)C(=O)C1CCC(=O)N(CCc2cccc(F)c2)C1 (stereo not drawn)	5.1		1.2% (inactive)
CC(C)(C)NC(=O)c1ccc2c(c1)N(CC(=O)N1CCN(c3ccc(F)cc3)CC1)C(=O)C(C)(C)O2	8.7		12.7% (inactive)
O=C(CN1CCC(n2nnc3cc(F)ccc32)CC1)NC1CC1	-7.1		-1.4% (inactive)
Cc1cc(C(=O)Nc2cccc(O)c2)c(C)o1	7.4		-9.8% (inactive)
CC(=O)Nc1ccc2c(c1)nc(CCNC(=O)c1ccco1)n2C	1.2		13% (inactive)
COc1ccccc1OCc1ccc(C(=O)n2nc(C)c(Cl)c2C)o1	-1.3		2.6% (inactive)
CCc1c(C)nc(SCC(=O)Nc2cccc(Br)c2)[nH]c1=O	35.5		12.1% (inactive)
